Entries after “also recorded” stand apart in the source; their conditions may differ.
Assays:
[1] = system: IR HepG2 cells; test: Glucose consumption assay in IR HepG2 cells; assay type: cell-based, Human; details: for EC50: Homo sapiens, insulin-resistant HepG2 cells, 24 h incubation with compound, read-out: EC50, effects on glucose consumption in IR HepG2 cells; for Antidiabetic activity (glucose consumption) compared with metformin, in words: IR HepG2 cells, comparison with metformin
Experimental: The compounds were dissolved in DMSO as stock. The final solution was 1:1,000 dilution of the stock in DMEM.
Human HepG2 cells were cultured in 96-well cluster plates, after achieving confluence, 10^−[…] insulin was treated for 36 h in serum-free and phenol red-free high-glucose DMEM. After this incubation, the cells were washed four times with high-glucose DMEM ([…]) and twice with phosphate-buffered saline. The cells were added to serum-free and phenol red-free high-glucose DMEM containing the various test compounds at different concentrations, incubated for 24 h, and then glucose content in the culture medium was measured using a glucose assay kit.
The enhancement ratio of glucose consumption (GC) was calculated as follows: GC %=(GC treatment group−GC of control group)/GC of control group×100.
The potencies of the products were expressed as median effective concentration (EC50) values.
All data were presented as the means±SD. SPSS10.0 was used for statistical analysis. Statistical significance was at a level of 5% (p<0.05).

[2] = system: GLUT4; test: GLUT4myc translocation (cell surface GLUT4myc density, ELISA) in L6-GLUT4myc skeletal muscle cells; assay type: cell-based, rat; details: for Stimulation of GLUT4myc translocation, in words: L6-GLUT4myc muscle cells, 24 h incubation; for Effect on GLUT4 translocation compared with insulin: L6-GLUT4myc cells, insulin 100 nM positive control
From the text: GLUT4 is the main glucose transporter in skeletal muscle. In the basal state, the majority of GLUT4 locate in vesicles of cytoplasma. In response to insulin, GLUT4 translocates to the cell membrane, therefore transport more glucose into cell. The rate of glucose transport is the rate-limiting step of glucose metabolism in skeletal muscle. […] In order to measure GLUT4 translocation, we use stable over expressing GLUT4myc rat muscle cell line, L6-GLUT4myc. The amount of GLUT4 on intact cell membrane was measured by ELISA with anti-myc antibody and HRP-conjugated secondary antibody. The OD value was detected at 492 nm.
The tested compounds were dissolved in DMSO as stock. The final solution was 1:1,000 dilution of the stock in low glucose DMEM.
The cells were treated with each compound at 2 to 5 different concentrations with triplicate in each group. The control group was treated with 0.1% DMSO. The blank group had no treatment. Insulin was used as positive control.
Myoblasts were cultured and differentiated into myotubes. Cells were serum starved for 4 hours, then incubated with different compounds at different concentrations for 24 hours or with 100 nM insulin for 20 min. Then cells were washed 3 times with ice-cold phosphate-butfered saline (PBS) supplemented with 1 mM Ca2+ and 1 mM Mg2+(PBS+), fixed with 3% (v/v) paraformaldehyde (PFA) in PBS+ for 10 min at 4° C., then 20 min at room temperature. The cells were washed twice with PBS+, quenched 10 min with 100 mM glycine in PBS+, blocked 10 min with ice-cold 5% (v/v) milk in PBS+, and reacted with polyclonal anti-myc antibody (1:250) for 1 hour. After washing 6 times with PBS+, cells reacted with HRP-bound goat anti-rabbit secondary antibody (1:5000) for 1 hour. The cells were washed 6 times with PBS+, and incubated with 1.0 ml OPD reagent and allowed to develop for 10-20 min. The reaction was stopped with 0.25 ml per well of 3 M HCl. Supernatants were collected and absorbance was measured at 492 nm. Background absorbance obtained in the absence of anti-myc antibody was subtracted from all values.
All data were presented as the means±SD. SPSS16.0 was used for statistical analysis. Data sets of more than two groups were compared using analysis of variance (One-Way ANOVA). Statistical significance was at a level of 5% (p<0.05).

[3] = system: ACC; test: Phosphorylation of ACC by western blotting in HepG2 cells; assay type: cell-based, Human; details: 2 h incubation, western blot
Experimental: (§1) In this section, Western Blotting was used to assay the effect of these flavonoids on the phosphorylation of AMPK and ACC in HepG2 cells to illustrate the relationship between the mechanism of the flavonoids on glucose uptake and lipid metabolism and APMK signal pathway.
(§2) Whole cell lysate preparation: After serum-starving HepG2 cells, the cells were incubated with the flavonoids for 2 h, and then washed twice with PBS. Next, pre-chilled RIPA lysis buffer was added for 20 min at 4° C. The lysates were centrifuged at 13,000 rpm/min for 10 min at 4° C., and the supernatants were used for determination of total protein content. Forty micrograms of protein from the supernatant was aliquoted and its volume was adjusted to thirty microliters using deionized water and loading buffer. Lastly, the protein samples were heated at 65° C. for 15 min.
(§3) Western blot analysis: The samples were electrophoresed on 7.5% SDS-polyacrylamide gels, transferred to polyvinylidene fluoride membranes, blocked for 1 h in 5% (w/v) bovine serum albumin, and then incubated with primary antibodies overnight at 4° C. The membranes were washed three times with TBST and incubated with appropriate secondary antibodies conjugated to horse-radish peroxidase for 1 h at room temperature. The immunoreactive bands were detected using chemiluminescent reagent and autoradiographic film.

[4] = system: AMPK; test: Phosphorylation of AMPK by western blotting in HepG2 cells; assay type: cell-based, Human; details: 2 h incubation, western blot
Experimental: as §1, §2, §3

SMILES: O=C(/C=C/c1ccc(O)c(Cl)c1)COc1c(-c2ccc(O)cc2)oc2cc(O)cc(O)c2c1=O [Compound I-11, 3-O-[(E)-4-(3-Chloro-4-hydroxyphenyl)-2-oxobut-3-en-1-yl] kaempferol]
- EC50 [1]: 3.56 µM

SMILES: COc1ccc(/C=C/C(=O)COc2c(-c3ccc(O)cc3)oc3cc(O)cc(O)c3c2=O)cc1O [Compound I-7, 3-O-[(E)-4-(3-Hydroxy-4-methoxyphenyl)-2-oxobut-3-en-1-yl]kaempferol]
- EC50 [1]: 5.07 µM

SMILES: O=C(/C=C/c1ccc(OCc2ccccc2)cc1)COc1c(-c2ccc(O)cc2)oc2cc(O)cc(O)c2c1=O [Compound I-2, 3-O-[(E)-4-(4-(Benzyloxyphenyl))-2-oxobut-3-en-1-yl] kaempferol]
- EC50 [1]: 0.658 µM
- Stimulation of GLUT4myc translocation, in words [2]: significantly stimulate GLUT4myc translocation

SMILES: COc1cc(/C=C/C(=O)COc2c(-c3ccc(O)cc3)oc3cc(O)cc(O)c3c2=O)ccc1O [Compound I-8, 3-O-[(E)-4-(3-Methoxy-4-hydroxyphenyl-)-2-oxobut-3-en-1-yl]kaempferol]
- EC50 [1]: 6.19 µM

SMILES: O=C(/C=C/c1ccc(Br)cc1)COc1c(-c2ccc(O)cc2)oc2cc(O)cc(O)c2c1=O [Compound I-13, 3-O-[(E)-4-(4-Bromophenyl)-2-oxobut-3-en-1-yl] kaempferol]
- EC50 [1]: 0.393 µM

SMILES: O=C(/C=C/c1ccc(F)cc1)COc1c(-c2ccc(O)cc2)oc2cc(O)cc(O)c2c1=O [Compound I-14, 3-O-[(E)-4-(4-Fluorophenyl)-2-oxobut-3-en-1-yl] kaempferol]
- EC50 [1]: 0.669 µM
- Stimulation of GLUT4myc translocation, in words [2]: significantly stimulate GLUT4myc translocation

SMILES: O=C(/C=C/c1ccccc1)COc1c(-c2ccc(O)cc2)oc2cc(O)cc(O)c2c1=O [Compound I-5, 3-O-[(E)-(2-Oxo-4-phenylbut-3-en-1-yl)] kaempferol]
- EC50 [1]: 0.473 µM

SMILES: O=C(/C=C/c1ccc(O)cc1)COc1c(-c2ccc(O)cc2)oc2cc(O)cc(O)c2c1=O [Compound I-1, 3-O-[(E)-4-(4-Hydroxyphenyl)-2-oxobut-3-en-1-yl] kaempferol]
- EC50 [1]: 0.368 µM
- Antidiabetic activity (glucose consumption) compared with metformin, in words [1]: comparable activity with that of metformin

SMILES: N#Cc1ccc(/C=C/C(=O)COc2c(-c3ccc(O)cc3)oc3cc(O)cc(O)c3c2=O)cc1 [Compound I-12, 3-O-[(E)-4-(4-Cyanophenyl)-2-oxobut-3-en-1-yl] kaempferol]
- Phosphorylation of ACC [3]: significantly stimulate the phosphorylation
- EC50 [1]: 0.003 µM
- Antidiabetic activity (glucose consumption) compared with metformin, in words [1]: comparable activity with that of metformin; also recorded: significantly superior to that of metformin; also recorded: strongest antidiabetic activity; also recorded: greater than that of marketed drug metformin
- Phosphorylation of AMPK [4]: significantly stimulate the phosphorylation
- Effect on GLUT4 translocation compared with insulin ([2]; 2 μg/ml): higher effect on GLUT4 translocation than insulin; also recorded: strongest effect on promoting glucose transporter 4 translocation than insulin
- Effect on GLUT4 translocation compared with insulin ([2]; 5 μg/ml): higher effect on GLUT4 translocation than insulin; also recorded: strongest effect on promoting glucose transporter 4 translocation than insulin
- Stimulation of GLUT4myc translocation, in words [2]: strongest effect; also recorded: significantly stimulate GLUT4myc translocation

SMILES: COc1ccc(/C=C/C(=O)COc2c(-c3ccc(O)cc3)oc3cc(O)cc(O)c3c2=O)cc1 [Compound I-3, 3-O-[(E)-4-(4-Methoxyphenyl)-2-oxobut-3-en-1-yl] kaempferol]
- EC50 [1]: 0.149 µM
- Antidiabetic activity (glucose consumption) compared with metformin, in words [1]: comparable activity with that of metformin; also recorded: significantly superior to that of metformin
- Stimulation of GLUT4myc translocation, in words [2]: significantly stimulate GLUT4myc translocation

SMILES: O=C(/C=C/c1ccc(Cl)cc1)COc1c(-c2ccc(O)cc2)oc2cc(O)cc(O)c2c1=O [Compound I-15, 3-O-[(E)-4-(4-Chlorophenyl)-2-oxobut-3-en-1-yl] kaempferol]
- EC50 [1]: 1.07 µM

SMILES: CC(C)(C)c1ccc(/C=C/C(=O)COc2c(-c3ccc(O)cc3)oc3cc(O)cc(O)c3c2=O)cc1 [Compound I-9, 3-O-[(E)-4-(4-(tert-Butyl)phenyl)-2-oxobut-3-en-1-yl] kaempferol]
- EC50 [1]: 0.013 µM
- Antidiabetic activity (glucose consumption) compared with metformin, in words [1]: comparable activity with that of metformin; also recorded: significantly superior to that of metformin

SMILES: CC(C)c1ccc(/C=C/C(=O)COc2c(-c3ccc(O)cc3)oc3cc(O)cc(O)c3c2=O)cc1 [Compound I-10, 3-O-[(E)-4-(4-Isopropylphenyl)-2-oxobut-3-en-1-yl] kaempferol]
- EC50 [1]: 0.015 µM
- Antidiabetic activity (glucose consumption) compared with metformin, in words [1]: comparable activity with that of metformin; also recorded: significantly superior to that of metformin
- Stimulation of GLUT4myc translocation, in words [2]: significantly stimulate GLUT4myc translocation

SMILES: CN(C)C(=N)N=C(N)N [metformin, reference compound]
- EC50 [1]: 0.27 µM

SMILES: O=C(/C=C/c1ccc(Cl)c(Cl)c1)COc1c(-c2ccc(O)cc2)oc2cc(O)cc(O)c2c1=O [Compound I-16, 3-O-[(E)-4-(3,4-Dichlorophenyl)-2-oxobut-3-en-1-yl] kaempferol]
- EC50 [1]: 2.59 µM

SMILES: Cc1ccc(/C=C/C(=O)COc2c(-c3ccc(O)cc3)oc3cc(O)cc(O)c3c2=O)cc1 [Compound I-6, 3-O-[(E)-(2-Oxo-4-(p-tolyl)but-3-en-1-yl)] kaempferol]
- EC50 [1]: 0.01 µM
- Antidiabetic activity (glucose consumption) compared with metformin, in words [1]: comparable activity with that of metformin; also recorded: significantly superior to that of metformin

SMILES: CCOc1ccc(/C=C/C(=O)COc2c(-c3ccc(O)cc3)oc3cc(O)cc(O)c3c2=O)cc1 [Compound I-4, 3-O-[(E)-4-(4-Ethoxyphenyl)-2-oxobut-3-en-1-yl] kaempferol]
- EC50 [1]: 0.042 µM
- Antidiabetic activity (glucose consumption) compared with metformin, in words [1]: comparable activity with that of metformin; also recorded: significantly superior to that of metformin
